{"source": "patent US20120083471A1", "about": "“Novel Compounds, Pharmaceutical Compositions Containing Same, Methods of Use for Same, and Methods for Preparing Same” (priority 2008, published 2012)", "format_in_all_cases": "in vivo, mouse", "key": {"[1]": {"test_system": "DIO mice", "assay": "Chronic 16 d FSG67 treatment of DIO mice with indirect calorimetry and pair-fed group", "details": "5 mg/kg ip daily", "procedure": "(§1) For acute studies, 6 DIO or lean mice were treated with a single dose of FSG67 (20 mg/kg, i.p.) approximately 3 hrs past lights-on. Animal weights and food consumption were measured 18 h after treatment. Following euthanization, the hypothalmuses were harvested to measure orexigenic and anorexigenic neuropeptide gene expression. In the chronic studies, DIO mice, 4-10 animals per group, were treated daily with FSG67 (5 mg/kg, i.p.) or with RMPI vehicle for the days indicated. Body weight and food intake were measured daily. In one study, a cohort of mice was pair-fed with amounts consumed by the FSG67-treated animals and mice were monitored with indirect calorimetry (Oxymax Equal Flow System®, Columbus Instruments, Columbus, Ohio). Measurements of VO2 (ml/kg/hr) and VCO2 (ml/kg/hr) were performed and recorded every 15 min. The respiratory exchange ratio (RER) was calculated by Oxymax software, version 5.9, and is defined as ratio of VCO2 to VO2 33. After completion of the treatment course, animals were euthanized by CO2 inhalation 4 hrs following the final dose of FSG67. Tissues were harvested immediately for RNA extraction; serum was collected and analyzed for glucose, cholesterol, and triglyceride measurements (Bioanalytics, Gaithersburg, Md.). Fresh liver tissue was snap frozen in liquid N2, sectioned, and stained with hematoxylin and Oil Red O to visualize triglyceride droplets.\nIn the second chronic treatment study, indirect calorimetry was utilized to study changes in metabolism during GPAT inhibition. DIO mice (8 per group) were treated with FSG67 (5 mg/kg, ip), or pair-fed to FSG67 treated animals. Indirect calorimetry was utilized to measure changes in oxygen consumption (VO2) and respiratory exchange ratio (RER) between pair-fed and treated animals. After 16 days of treatment, the FSG67 treated mice lost 9.5±0.6% of body mass, pair-fed lost 5.5±0.9%, while vehicle controls gained 3.5±1.3% (FIG. 12c). The weight loss in the FSG67 treated animals was significant compared to both vehicle controls and pair-fed animals (p<0.0001, 2-way ANOVA). […] RER was reduced in FSG67 treated mice (0.732±0.002) compared to pair-fed (0.782±0.006) (p<0.0001, 2-way ANOVA) (FIG. 12f) indicating increased use of fatty acids for fuel in the FSG67 treated animals. The combination of increased VO2 and reduced RER in the FSG67 treated animals are consistent with increased fatty acid oxidation and energy utilization which likely contribute to their reduced body mass compared to the pair-fed controls."}, "[2]": {"test_system": "DIO mice", "assay": "Chronic 20 d FSG67 treatment of DIO mice, reversibility of weight loss", "description": "DIO and lean mouse models. All animal experimentation was done in accordance with guidelines on animal care and use as established by the Johns Hopkins University School of Medicine IACUC. DIO C57BL6J male mice were obtained from Jackson Laboratory (Bar Harbor, ME) and fed a synthetic diet comprised of 60% calories from fat, 20% from carbohydrate, and 20% from protein (5.2 kcal/g) post-weaning through the experimental procedures (D12492i, Research Diets, Inc., New Brunswick, N.J.). For lean animal studies, twelve-week old C57BL6J male mice (Jackson Laboratory, Bar Harbor, Me.) were fed rodent chow comprised of 13% calories from fat, 58% from carbohydrate, and 29% from protein (4.1 kcal/g) (Prolab RMH 2500, PMI Nutrition International Inc., Brentwood, Mo.). Mice were maintained in 12 hr light-dark cycle at 25° C. for 1 week for acclimatization prior to treatment. In all studies, FSG67 (FASgen, Inc., Baltimore, Md.) was dissolved in RPMI 1640 (Invitrogen, Carlsbad, Calif.).\nas §1\nThe first chronic treatment experiment was designed to test if weight loss induced by FSG67 was reversible. Four DIO mice per group were treated with FSG67 or vehicle for 20 days. For the entire 32 d trial, weight and food consumption were recorded daily until the FSG67 treated animals regained their original weight. During FSG67 treatment (days 0-20), the mice lost 10.3±0.6% of their body mass while controls gained 4.0±0.5% (p<0.0001, 2-way ANOVA) (FIG. 12a). Average food consumption was reduced during FSG67 treatment (2.6±0.1 g/d, days 1-20) compared to vehicle controls (3.1±0.1 g) (p=0.0008, 2-way ANOVA) (FIG. 12b). Following cessation of treatment, food consumption increased in the FSG67 treatment group to an average of 3.5±0.1 g/d (days 21-32) representing a significant increase in food intake compared to vehicle controls 3.2±0.1 g/d (p=0.006, 2-way ANOVA). The FSG67 treated animals achieved their average pre-treatment weight 11 days following termination of treatment (FIG. 12a)."}, "[3]": {"test_system": "hypothalamic neuropeptide expression", "assay": "Real-time RT-PCR of hypothalamic neuropeptides in DIO mice", "procedure": "as §1\nReal-time RT-PCR. Hypothalamus, liver, and WAT of DIO and lean mice were harvested and immediately frozen in liquid nitrogen. Total RNA was isolated and real-time quantitative RT-PCR was performed as previously described (13). Gene-specific primer pairs were designed using Primer3 software (http://www-genome.wi.mit.edu/cgi-bin/primer/primer3_www.cgi/). […]\nAcute and chronic FSG67 treatment altered hypothalamic neuropeptide expression. Hypothalamic peptide expression was measured in the lean and DIO mice treated with a single dose of FSG67 (see FIG. 11) and in the chronically treated DIO mice (see FIG. 12) to further asses the mechanism responsible for reduced food intake. […]"}}, "data": [{"smiles": "CCCCCCCCCS(=O)(=O)Nc1ccccc1C(=O)O", "note": "[Compound 15g, 2-(Nonylsulfonamido)benzoic acid]", "values": [{"measurement": "average daily food consumption", "setting": "[1]; 16 days", "result": "2.0 ± 0.1", "unit": "g/day"}, {"measurement": "body mass lost", "setting": "[1]; 16 days", "result": "9.5±0.6", "unit": "%"}, {"measurement": "reduction of average daily food consumption vs vehicle", "setting": "[1]; 16 days", "result": 33, "unit": "%"}, {"measurement": "average RER", "setting": "[1]; indirect calorimetry", "result": "0.732±0.002"}, {"measurement": "average VO2, % of pre-treatment value", "setting": "[1]; indirect calorimetry", "result": "106.5±1.1", "unit": "%"}, {"measurement": "time to pre-treatment weight following termination of treatment", "setting": "[2]", "result": 11, "unit": "days"}, {"measurement": "body mass lost during treatment", "setting": "[2]; 5 mg/kg ip daily, 20 d", "result": "10.3±0.6", "unit": "%"}, {"measurement": "food consumption during treatment", "setting": "[2]; 5 mg/kg ip daily, days 1-20", "result": "2.6 ± 0.1", "unit": "g/day"}, {"measurement": "food consumption following cessation of treatment", "setting": "[2]; days 21-32", "result": "3.5 ± 0.1", "unit": "g/day"}, {"measurement": "day of return to original weight", "setting": "[2]; treatment terminated at day 20", "result": 32, "unit": "days"}, {"measurement": "hypothalamic AGRP, POMC and CART expression", "setting": "[3]; 16 d treated", "result": "unaffected"}, {"measurement": "hypothalamic NPY expression", "setting": "[3]; 16 d treated, vs vehicle controls, listed as FSG67", "result": "significant reduction"}, {"measurement": "hypothalamic AGRP expression", "setting": "[3]; single dose, vs vehicle controls and food-deprived (data not shown)", "result": "significantly increased"}]}]}
